Patent US12623988B2, “Scaleable preparation of polyketides” (The Regents of the University of California, priority 2019, dated 2026)
Entries after “also recorded” stand apart in the source; their conditions may differ. Where two headings read alike, the source gives them in different places.

Assays:
[1] = Storage stability of synthetic fragments and intermediates; settings: for stability at ambient conditions: storage
HCT-116 cells = assay: Cell viability assay for 1 and 1a-1c in HCT-116 cells (CellTiter Aqueous One, GI50); format: cell-based, human; settings: 0 to 1000 nM, 72 h, result in words, compared to 1
Description: Cell culture. The HCT-116 cell line was cultured in McCoy's 5a (Life Technologies) supplemented with 10% fetal bovine serum (FBS), 2 mM L-glutamine, and 100 U mL^−1 of penicillin and 100 μg mL^−1 of streptomycin at 37° C. in an atmosphere of 5% CO2. Both the HeLa and Caov3 cell lines were maintained in DMEM (Life Technologies) supplemented with 10% FBS, 2 mM L-glutamine, and 100 U mL^−1 of penicillin and 100 μg mL^−1 of streptomycin at 37° C. in an atmosphere of 5% CO2.
Cell Viability Assays for 1a-1c. HCT-116 cells were cultured in McCoy's 5a (Life Technologies) supplemented with 10% fetal bovine serum (FBS), 2 mM L-glutamine, 100 U mL^−1 penicillin and 100 μg mL^−1 streptomycin at 37° C. in an atmosphere of 5% CO2. HCT-116 cells were plated at […] cells/well in McCoy's 5a containing 10% FBS. Cells were cultured for 24 h, pretreated with 1 or 1a-1c in DMSO ranging from 0 to 1000 nM for 72 h (cell media contained <0.5% DMSO), and then washed with PBS (2×100 μL). 100 μL of PBS was added to each well, followed by 20 μL of CellTiter Aqueous One Solution (Promega). After 2 h at 37° C., absorbance readings were taken at 490 nm (test wavelength) and 690 nm (reference wavelength). GI50 values were calculated in Prism (GraphPad) using at least three biological replicates.

[2] = estimated, reference (6); cited from earlier work
[3] = rcm bond, Hoveyda-Grubbs 2nd generation catalyst, toluene, 110.0 °C, 5.33 h

## C#C[C@@H](C)[C@H](O)[C@H]1O[C@@H]1[C@H](C)[C@H](CC)OC [compound 15, (1S,2R)-1-((2R,3R)-3-((2R,3S)-3-methoxypentan-2-yl)oxiran-2-yl)-2-methylbut-3-yn-1-ol]
[1]
  stability at ambient conditions: stable over six months at ambient conditions

## CC[C@H](OC)[C@@H](C)[C@H]1O[C@@H]1[C@@H](O)[C@H](C)/C=C/C=C(\C)[C@H]1OC(=O)C[C@H](O)CC[C@@](C)(O)[C@H](OC(C)=O)/C=C/[C@@H]1C [1b, 7R,17S-FD-895]
HCT-116 cells
  activity (GI50 screening) in human colorectal tumor HCT-116 cells: compromised activity; also recorded: lack in activity

## CC[C@H](OC)[C@@H](C)[C@H]1O[C@@H]1[C@@H](O)[C@H](C)/C=C/C=C(\C)[C@H]1OC(=O)C[C@@H](O)CC[C@@](C)(O)[C@@H](OC(C)=O)/C=C/[C@@H]1C [1a, 3S,17S-FD-895]
HCT-116 cells
  activity (GI50 screening) in human colorectal tumor HCT-116 cells: compromised activity

## CC[C@H](OC)[C@@H](C)[C@H]1O[C@@H]1[C@@H](O)[C@H](C)/C=C/C=C(\C)[C@H]1OC(=O)C[C@H](O)CC[C@@](C)(O)[C@@H](OC(C)=O)/C=C/[C@@H]1C [compound 1, 17S-FD-895]
[2]
  human maximum tolerated dose (MTD): ~4 mg/m^2

## CC[C@H](OC)[C@@H](C)/C=C/CO [compound 13, (4S,5S,E)-5-Methoxy-4-methylhept-2-en-1-ol]
[1]; stored at 4° C.
  storage stability at 4° C.: over 2 years

## COc1ccc(C2O[C@H]3/C=C/[C@H](C)[C@@H](/C(C)=C/I)OC(=O)C[C@H](O[Si](C)(C)C(C)(C)C)CC[C@@]3(C)O2)cc1 (stereo partly drawn)
[3]; from C=C[C@@H]1OC(c2ccc(OC)cc2)O[C@]1(C)CC[C@H](CC(=O)O[C@H](/C(C)=C/I)[C@@H](C)C=C)O[Si](C)(C)C(C)(C)C, 5.37 mM
  ring closure, yield of all isomers: 50%
[3]; from C=C[C@@H]1OC(c2ccc(OC)cc2)O[C@]1(C)CC[C@H](CC(=O)O[C@H](/C(C)=C/I)[C@@H](C)C=C)O[Si](C)(C)C(C)(C)C
  ring closure, yield of all isomers: 51%

## COc1ccc(C2O[C@H]3C=C[C@H](C)[C@@H](/C(C)=C/I)O[13C](=O)C[C@H](O[Si](C)(C)C(C)(C)C)CC[C@@]3(C)O2)cc1 (stereo partly drawn)
[3]; from C=C[C@@H]1OC(c2ccc(OC)cc2)O[C@]1(C)CC[C@H](C[13C](=O)O[C@H](/C(C)=C/I)[C@@H](C)C=C)O[Si](C)(C)C(C)(C)C, 6.52 mM
  ring closure, yield of all isomers: 50%

## CC(=O)O[C@H]1/C=C/[C@H](C)[C@@H](/C(C)=C/I)OC(=O)C[C@H](O)CC[C@@]1(C)O [compound 2, (2S,3S,6S,7R,10R,E)-7,10-dihydroxy-2-((E)-1-iodoprop-1-en-2-yl)-3,7-dimethyl-12-oxooxacyclododec-4-en-6-yl acetate]
[1]
  stability at ambient conditions: stable over six months at ambient conditions
